Species: Rattus norvegicus
Assay: DrugMatrix - Regimen: Daily Repeat
Type: toxicity, organism-based, Sprague-Dawley
Design: regimen Daily Repeat, gender Male, age 6-8 weeks
Settings: in vivo, iv, vehicle 100 % SALINE; for ABSOLUTE BASOPHIL / ABSOLUTE EOSINOPHIL / ABSOLUTE LYMPHOCYTE / ABSOLUTE MONOCYTE / ABSOLUTE SEGMENTED NEUTROPHIL / BASOPHIL / EOSINOPHIL / ERYTHROCYTE COUNT / HEMATOCRIT / HEMOGLOBIN / LYMPHOCYTE / MEAN CORPUSCULAR HEMOGLOBIN / MEAN CORPUSCULAR HEMOGLOBIN CONCENTRATION / MONOCYTE / NEUTROPHIL / NUCLEATED RED BLOOD CELLS / PLATELET COUNT: tissue Blood; for ALANINE AMINOTRANSFERASE / ALBUMIN / ALKALINE PHOSPHATASE / ASPARTATE AMINOTRANSFERASE / BLOOD UREA NITROGEN / CARBON DIOXIDE / CHLORIDE / CHOLESTEROL / CREATINE PHOSPHOKINASE / CREATININE / GLUCOSE / LIPASE / PHOSPHORUS / POTASSIUM / SODIUM / TOTAL BILIRUBIN / TOTAL PROTEIN / URIC ACID: tissue Plasma
[1] = 0 mg/kg, 72 h, dose level Control, time 3 day
[2] = 0 mg/kg, 120 h, dose level Control, time 5 day
[3] = 5 mg/kg, 72 h, dose level High, time 3 day

Structure (SMILES): CCc1c2c(nc3ccc(OC(=O)N4CCC(N5CCCCC5)CC4)cc13)-c1cc3c(c(=O)n1C2)COC(=O)[C@]3(O)CC [IRINOTECAN]
- ABSOLUTE BASOPHIL [1]: 0 CELLS/uL
- ABSOLUTE EOSINOPHIL [1]: 23.17 CELLS/uL
- ABSOLUTE LYMPHOCYTE [1]: 12448.83 CELLS/uL
- ABSOLUTE MONOCYTE [1]: 259.5 CELLS/uL
- ABSOLUTE SEGMENTED NEUTROPHIL [1]: 1635.17 CELLS/uL
- BASOPHIL [1]: 0%
- EOSINOPHIL [1]: 0.17%
- ERYTHROCYTE COUNT [1]: 5.35 x10E6/uL
- HEMATOCRIT [1]: 34.85%
- HEMOGLOBIN [1]: 13.72 G/DL
- LYMPHOCYTE [1]: 86.5%
- MEAN CORPUSCULAR HEMOGLOBIN [1]: 25.67 pg
- MEAN CORPUSCULAR HEMOGLOBIN CONCENTRATION [1]: 39.38 G/DL
- MONOCYTE [1]: 1.83%
- NEUTROPHIL [1]: 11.5%
- NUCLEATED RED BLOOD CELLS [1]: 0 /100WBC
- PLATELET COUNT [1]: 1248.67 x10E3/uL
- ALANINE AMINOTRANSFERASE [1]: 56.5 u/L
- ALBUMIN [1]: 4.27 G/DL
- ALKALINE PHOSPHATASE [1]: 334 u/L
- ASPARTATE AMINOTRANSFERASE [1]: 85.5 u/L
- BLOOD UREA NITROGEN [1]: 16.33 mg/dL
- CARBON DIOXIDE [1]: 26.5 mmol/L
- CHLORIDE [1]: 100.17 MEQ/L
- CHOLESTEROL [1]: 70.33 mg/dL
- CREATINE PHOSPHOKINASE [1]: 339.5 u/L
- CREATININE [1]: 0.18 mg/dL
- GLUCOSE [1]: 155.17 mg/dL
- LIPASE [1]: 9.5 u/L
- PHOSPHORUS [1]: 13.55 mg/dL
- POTASSIUM [1]: 6.68 MEQ/L
- SODIUM [1]: 143.87 MEQ/L
- TOTAL BILIRUBIN [1]: 0.2 mg/dL
- TOTAL PROTEIN [1]: 5.98 G/DL
- URIC ACID [1]: 1.53 mg/dL
- ABSOLUTE BASOPHIL [2]: 0 CELLS/uL
- ABSOLUTE EOSINOPHIL [2]: 16.17 CELLS/uL
- ABSOLUTE LYMPHOCYTE [2]: 10653.67 CELLS/uL
- ABSOLUTE MONOCYTE [2]: 17.17 CELLS/uL
- ABSOLUTE SEGMENTED NEUTROPHIL [2]: 746.33 CELLS/uL
- BASOPHIL [2]: 0%
- EOSINOPHIL [2]: 0.17%
- ERYTHROCYTE COUNT [2]: 5.88 x10E6/uL
- HEMATOCRIT [2]: 36.68%
- HEMOGLOBIN [2]: 14.6 G/DL
- LYMPHOCYTE [2]: 91.83%
- MEAN CORPUSCULAR HEMOGLOBIN [2]: 24.85 pg
- MEAN CORPUSCULAR HEMOGLOBIN CONCENTRATION [2]: 39.8 G/DL
- MONOCYTE [2]: 0.17%
- NEUTROPHIL [2]: 7.83%
- NUCLEATED RED BLOOD CELLS [2]: 0 /100WBC
- PLATELET COUNT [2]: 1219.5 x10E3/uL
- ALANINE AMINOTRANSFERASE [2]: 45.5 u/L
- ALBUMIN [2]: 4.23 G/DL
- ALKALINE PHOSPHATASE [2]: 330.17 u/L
- ASPARTATE AMINOTRANSFERASE [2]: 93.33 u/L
- BLOOD UREA NITROGEN [2]: 18 mg/dL
- CARBON DIOXIDE [2]: 25.5 mmol/L
- CHLORIDE [2]: 96.33 MEQ/L
- CHOLESTEROL [2]: 73.5 mg/dL
- CREATINE PHOSPHOKINASE [2]: 434 u/L
- CREATININE [2]: 0.2 mg/dL
- GLUCOSE [2]: 148.83 mg/dL
- LIPASE [2]: 10 u/L
- PHOSPHORUS [2]: 12.63 mg/dL
- POTASSIUM [2]: 6.66 MEQ/L
- SODIUM [2]: 139.78 MEQ/L
- TOTAL BILIRUBIN [2]: 0.15 mg/dL
- TOTAL PROTEIN [2]: 6.1 G/DL
- URIC ACID [2]: 2.02 mg/dL
- ABSOLUTE BASOPHIL [3]: 0 CELLS/uL
- ABSOLUTE EOSINOPHIL [3]: 80.67 CELLS/uL
- ABSOLUTE LYMPHOCYTE [3]: 9024 CELLS/uL
- ABSOLUTE MONOCYTE [3]: 170 CELLS/uL
- ABSOLUTE SEGMENTED NEUTROPHIL [3]: 658.67 CELLS/uL
- BASOPHIL [3]: 0%
- EOSINOPHIL [3]: 0.67%
- ERYTHROCYTE COUNT [3]: 5.4 x10E6/uL
- HEMATOCRIT [3]: 34.93%
- HEMOGLOBIN [3]: 13.9 G/DL
- LYMPHOCYTE [3]: 90.67%
- MEAN CORPUSCULAR HEMOGLOBIN [3]: 25.73 pg
- MEAN CORPUSCULAR HEMOGLOBIN CONCENTRATION [3]: 39.77 G/DL
- MONOCYTE [3]: 1.67%
- NEUTROPHIL [3]: 7%
- NUCLEATED RED BLOOD CELLS [3]: 0 /100WBC
- PLATELET COUNT [3]: 1386.67 x10E3/uL
- ALANINE AMINOTRANSFERASE [3]: 49 u/L
- ALBUMIN [3]: 4.27 G/DL
- ALKALINE PHOSPHATASE [3]: 402.67 u/L
- ASPARTATE AMINOTRANSFERASE [3]: 93 u/L
- BLOOD UREA NITROGEN [3]: 14.67 mg/dL
- CARBON DIOXIDE [3]: 26.67 mmol/L
- CHLORIDE [3]: 102.67 MEQ/L
- CHOLESTEROL [3]: 65 mg/dL
- CREATINE PHOSPHOKINASE [3]: 421.33 u/L
- CREATININE [3]: 0.18 mg/dL
- GLUCOSE [3]: 152.67 mg/dL
- LIPASE [3]: 10 u/L
- PHOSPHORUS [3]: 14.3 mg/dL
- POTASSIUM [3]: 6.6 MEQ/L
- SODIUM [3]: 145.83 MEQ/L
- TOTAL BILIRUBIN [3]: 0.17 mg/dL
- TOTAL PROTEIN [3]: 5.8 G/DL
